In ChEMBL document CHEMBL1157548, “Mitochondrial biotransformation of omega-(phenoxy)alkanoic acids, 3-(phenoxy)acrylic acids, and omega-(1-methyl-1H-imidazol-2-ylthio)alkanoic acids: a prodrug strategy for targeting cytoprotective antioxidants to mitochondria” (Bioorg Med Chem, 2010):
Active and inactive are the calls of the source. No cut-off for these calls is given here.

Assays:
Cardiac muscle cell [1] = test: Cytoprotective effect in rat cardiomyocytes under hypoxia-reoxygenation condition assessed as cell viability at 1 uM by trypan blue exclusion test; format: functional, cell-based
Cardiac muscle cell [2] = test: Cytoprotective effect in rat cardiomyocytes under hypoxia-reoxygenation condition assessed as cell viability at 1 uM by trypan blue exclusion test in presence of etomoxir; format: functional, cell-based

Compound | Activity (Cardiac muscle cell [1]) | Activity (Cardiac muscle cell [2])
Cc1cccc(C)c1O/C=C/C(=O)O | Active | inactive
Cn1ccnc1SCCC(=O)O | Active | inactive
Cc1cccc(C)c1OCCC(=O)O | Active | inactive
Cn1ccnc1S | inactive | 
Cn1ccnc1SCCCCC(=O)O | Active | inactive
